Test results taken from patent US20260373174A1, “THYROID BETA-AGONIST DOSING REGIMENS FOR THE TREATMENT OF X-ALD” (Viking Therapeutics, Inc., priority 2022, published 2026).

Test: previous phase 1 study, single and multiple dose cohorts
Format: in vivo, human
Conditions: doses used in this study (20, 40, 60, 80 mg QD, oral); preliminary results from 6 multiple dose cohorts (up to 100 mg) and 7 single dose cohorts (up to 125 mg)

## Cc1cc(OCP(=O)(O)O)cc(C)c1Cc1ccc(O)c(Cc2ccccc2)c1 [Compound 1]
  lipid plasma levels: lowering of lipid plasma levels
  safety: without safety issues
